For 23 compounds, EC50 results are on record in patent US12570642B2, “GLP-IR modulating compounds” (Gilead Sciences, Inc., priority 2021, dated 2026).

The structures appear in SMILES notation. pEC50: −log10 of the molar value.

The test deals with GLP-1R (Homo sapiens, UniProt P43220). Kind of test: GLP-1R Activation - cAMP Assay. The test is classed as cell-based. The settings on record: cAMP increase in CHO cells stably expressing GLP-1R; each compound run on one of the two cAMP assays (Assay 1 or Assay 2, not specified). In a few lines: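 cAMP rise read by HTRF after 30 min agonist exposure (10-point titration, 37 °C) in HBSS/20 mM Hepes/0.1% BSA, following 1 h pre-incubation. Cells: stable GLP-1R CHO line, 1,000/well, seeded overnight. Sigmoidal fit of response vs log concentration gives EC50.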
Sequence of GLP-1R (P43220 24-463): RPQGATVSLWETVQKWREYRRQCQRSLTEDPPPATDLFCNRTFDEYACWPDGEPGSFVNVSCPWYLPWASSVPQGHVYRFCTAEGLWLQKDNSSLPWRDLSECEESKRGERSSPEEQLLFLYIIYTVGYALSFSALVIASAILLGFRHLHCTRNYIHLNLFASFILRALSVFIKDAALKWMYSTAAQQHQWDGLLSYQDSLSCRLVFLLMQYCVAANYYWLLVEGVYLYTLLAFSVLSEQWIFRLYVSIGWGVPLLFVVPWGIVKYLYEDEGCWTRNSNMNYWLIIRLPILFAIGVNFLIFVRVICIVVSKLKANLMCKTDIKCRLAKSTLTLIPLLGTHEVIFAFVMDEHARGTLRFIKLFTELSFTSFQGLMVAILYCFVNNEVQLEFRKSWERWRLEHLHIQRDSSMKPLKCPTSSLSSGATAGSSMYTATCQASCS
In turn, `CC1(C)COC[C@H]1n1c(Cc2c(F)cc(-c3cccc(OCc4ccc(-n5ccnn5)cc4F)n3)c(F)c2F)nc2c(F)cc(C(=O)O)cc21` [Example 241, (S)-1-(4,4-dimethyltetrahydrofuran-3-yl)-4-fluoro-2-(2,3,6-trifluoro-4-(6-((2-fluoro-4-(1H-1,2,3-triazol-1-yl)benzyl)oxy)pyridin-2-yl)benzyl)-1H-benzo[d]imidazole-6-carboxylic acid] gave a pEC50 of 10.89. The result for `CC1(C)COC[C@H]1n1c(Cc2c(F)cc(-c3cccc(OCc4ccc(Cl)cc4F)n3)c(F)c2F)nc2c(F)cc(C(=O)O)cc21` [Example 242, (S)-2-(4-(6-((4-chloro-2-fluorobenzyl)oxy)pyridin-2-yl)-2,3,6-trifluorobenzyl)-1-(4,4-dimethyltetrahydrofuran-3-yl)-4-fluoro-1H-benzo[d]imidazole-6-carboxylic acid] reads 10.70. Under `CC1(C)COC[C@H]1n1c(Cc2c(F)cc(-c3cccc(OCc4ccc(Cl)cc4)n3)c(F)c2F)nc2c(F)cc(C(=O)O)cc21` [Example 243, (S)-2-(4-(6-((4-chlorobenzyl)oxy)pyridin-2-yl)-2,3,6-trifluorobenzyl)-1-(4,4-dimethyltetrahydrofuran-3-yl)-4-fluoro-1H-benzo[d]imidazole-6-carboxylic acid] stands 10.66; under `CC1(C)COC[C@H]1n1c(Cc2c(F)cc(-c3cccc(OCc4ccc(C#N)cc4)n3)c(F)c2F)nc2c(F)cc(C(=O)O)cc21` [Example 244, (S)-2-(4-(6-((4-cyanobenzyl)oxy)pyridin-2-yl)-2,3,6-trifluorobenzyl)-1-(4,4-dimethyltetrahydrofuran-3-yl)-4-fluoro-1H-benzo[d]imidazole-6-carboxylic acid], 10.82; under `CC1(C)COC[C@H]1n1c(Cc2c(F)cc(-c3cccc(OCc4ccc(C#N)cc4)n3)c(F)c2F)nc2ccc(C(=O)O)cc21` [Example 245, (S)-2-(4-(6-((4-cyanobenzyl)oxy)pyridin-2-yl)-2,3,6-trifluorobenzyl)-1-(4,4-dimethyltetrahydrofuran-3-yl)-1H-benzo[d]imidazole-6-carboxylic acid], 10.29. The result for `CC1(C)COC[C@H]1n1c(Cc2c(F)cc(-c3cccc(OCc4ccc(Cl)cc4)n3)c(F)c2F)nc2ccc(C(=O)O)cc21` [Example 246, (S)-2-(4-(6-((4-chlorobenzyl)oxy)pyridin-2-yl)-2,3,6-trifluorobenzyl)-1-(4,4-dimethyltetrahydrofuran-3-yl)-1H-benzo[d]imidazole-6-carboxylic acid] reads 10.19; that for `CC1(C)COC[C@H]1n1c(Cc2c(F)cc(-c3cccc(OCc4ccc(Cl)cc4F)n3)c(F)c2F)nc2ccc(C(=O)O)cc21` [Example 247, (S)-2-(4-(6-((4-chloro-2-fluorobenzyl)oxy)pyridin-2-yl)-2,3,6-trifluorobenzyl)-1-(4,4-dimethyltetrahydrofuran-3-yl)-1H-benzo[d]imidazole-6-carboxylic acid], 9.82; that for `CC1(C)COC[C@H]1n1c(Cc2cc(F)c(-c3cccc(OCc4ccc5c(c4)CN(S(C)(=O)=O)C5)n3)cc2F)nc2ccc(C(=O)O)cc21` [Example 248, (S)-2-(2,5-difluoro-4-(6-((2-(methylsulfonyl)isoindolin-5-yl)methoxy)pyridin-2-yl)benzyl)-1-(4,4-dimethyltetrahydrofuran-3-yl)-1H-benzo[d]imidazole-6-carboxylic acid], 9.73. The compound `CC1(C)COC[C@H]1n1c(Cc2cc(F)c(-c3cccc(OCc4ccc(Cl)nc4F)n3)cc2F)nc2ccc(C(=O)O)cc21` [Example 249, (S)-2-(4-(6-((6-chloro-2-fluoropyridin-3-yl)methoxy)pyridin-2-yl)-2,5-difluorobenzyl)-1-(4,4-dimethyltetrahydrofuran-3-yl)-1H-benzo[d]imidazole-6-carboxylic acid] showed a negative-log EC50 (pEC50) of 9.86. In turn, `COCCn1c(Cc2c(F)cc(-c3cccc(OCc4ccc(-n5ccnn5)cc4F)n3)c(F)c2F)nc2c(F)cc(C(=O)O)cc21` [Example 250, 4-fluoro-1-(2-methoxyethyl)-2-(2,3,6-trifluoro-4-(6-((2-fluoro-4-(1H-1,2,3-triazol-1-yl)benzyl)oxy)pyridin-2-yl)benzyl)-1H-benzo[d]imidazole-6-carboxylic acid] had a pEC50 of 10.32.

As for `COCCn1c(Cc2c(F)cc(-c3cccc(OCc4ccc(Cl)cc4F)n3)c(F)c2F)nc2c(F)cc(C(=O)O)cc21` [Example 251, 2-(4-(6-((4-chloro-2-fluorobenzyl)oxy)pyridin-2-yl)-2,3,6-trifluorobenzyl)-4-fluoro-1-(2-methoxyethyl)-1H-benzo[d]imidazole-6-carboxylic acid], the pEC50 is 10.10. For `Cc1ccc(COc2cccc(-c3cc(F)c(Cc4nc5ccc(C(=O)O)cc5n4[C@@H]4COCC4(C)C)cc3F)n2)c(F)n1` [Example 252, (S)-2-(2,5-difluoro-4-(6-((2-fluoro-6-methylpyridin-3-yl)methoxy)pyridin-2-yl)benzyl)-1-(4,4-dimethyltetrahydrofuran-3-yl)-1H-benzo[d]imidazole-6-carboxylic acid], the negative-log EC50 (pEC50) was 10.23.

For `COCCn1c(Cc2c(F)cc(-c3cccc(OCc4ccc(-n5ccnn5)nc4)n3)c(F)c2F)nc2c(F)cc(C(=O)O)cc21` [Example 253, 2-(4-(6-((6-(1H-1,2,3-triazol-1-yl)pyridin-3-yl)methoxy)pyridin-2-yl)-2,3,6-trifluorobenzyl)-4-fluoro-1-(2-methoxyethyl)-1H-benzo[d]imidazole-6-carboxylic acid], the negative-log EC50 (pEC50) was 10.15. In the case of `CC1(C)COC[C@H]1n1c(Cc2cc(F)c(-c3cccc(OCc4ccc(-n5ccnn5)nc4)n3)cc2F)nc2ccc(C(=O)O)cc21` [Example 254, (S)-2-(4-(6-((6-(1H-1,2,3-triazol-1-yl)pyridin-3-yl)methoxy)pyridin-2-yl)-2,5-difluorobenzyl)-1-(4,4-dimethyltetrahydrofuran-3-yl)-1H-benzo[d]imidazole-6-carboxylic acid], the negative-log EC50 (pEC50) was 10.06. The pEC50 values of the last two compounds are within 0.2 log units of each other.

Compound `COCCn1c(Cc2cc(F)c(-c3cccc(OCc4ccc(Cl)cc4)n3)cc2Cl)nc2c(F)cc(C(=O)O)cc21` [Example 255, 2-(2-chloro-4-(6-((4-chlorobenzyl)oxy)pyridin-2-yl)-5-fluorobenzyl)-4-fluoro-1-(2-methoxyethyl)-1H-benzo[d]imidazole-6-carboxylic acid] showed a pEC50 of 9.97. `CC1(C)COC[C@H]1n1c(Cc2cc(F)c(-c3cccc(OCc4ccc(C#N)cc4F)n3)cc2Cl)nc2ccc(C(=O)O)cc21` [Example 257, (S)-2-(2-chloro-4-(6-((4-cyano-2-fluorobenzyl)oxy)pyridin-2-yl)-5-fluorobenzyl)-1-(4,4-dimethyltetrahydrofuran-3-yl)-1H-benzo[d]imidazole-6-carboxylic acid] gave a pEC50 of 10.19. Turning to `COCCn1c(Cc2cc(F)c(-c3cccc(OCc4ccc5c(c4)CN(C(=O)OC)C5)n3)cc2Cl)nc2c(F)cc(C(=O)O)cc21` [Example 258, 2-(2-chloro-5-fluoro-4-(6-((2-(methoxycarbonyl)isoindolin-5-yl)methoxy)pyridin-2-yl)benzyl)-4-fluoro-1-(2-methoxyethyl)-1H-benzo[d]imidazole-6-carboxylic acid], the negative-log EC50 (pEC50) is 9.62.

For `COC(=O)N1Cc2ccc(COc3cccc(-c4cc(F)c(Cc5nc6c(F)cc(C(=O)O)cc6n5[C@@H]5COCC5(C)C)cc4F)n3)cc2C1` [Example 263, (S)-2-(2,5-difluoro-4-(6-((2-(methoxycarbonyl)isoindolin-5-yl)methoxy)pyridin-2-yl)benzyl)-1-(4,4-dimethyltetrahydrofuran-3-yl)-4-fluoro-1H-benzo[d]imidazole-6-carboxylic acid], the pEC50 was 9.15. This pEC50 is 0.47 log units lower than that of the compound before.

On to `CC1(C)COCC1n1c(Cc2cc(F)c(-c3cccc(OCc4ncc(C(F)(F)F)cc4F)n3)cc2F)nc2c(F)cc(C(=O)O)cc21` (centres unmarked) [Example 264, 2-(2,5-difluoro-4-(6-((3-fluoro-5-(trifluoromethyl)pyridin-2-yl)methoxy)pyridin-2-yl)benzyl)-1-(4,4-dimethyltetrahydrofuran-3-yl)-4-fluoro-1H-benzo[d]imidazole-6-carboxylic acid], for which the pEC50 is 9.81. Turning to `Cc1cc(Cc2nc3c(F)cc(C(=O)O)cc3n2[C@@H]2COCC2(C)C)c(F)cc1-c1ccnc(OCc2ccc(C#N)cc2F)n1` [Example 265, (S)-2-(4-(2-((4-cyano-2-fluorobenzyl)oxy)pyrimidin-4-yl)-2-fluoro-5-methylbenzyl)-1-(4,4-dimethyltetrahydrofuran-3-yl)-4-fluoro-1H-benzo[d]imidazole-6-carboxylic acid], the negative logarithm of the EC50 (pEC50) is 9.77. As to `N#Cc1ccc(COc2cccc(-c3cc(F)c(Cc4nc5ccc(C(=O)O)cc5n4C4COCC45CC5)cc3F)n2)c(F)c1` (centres unmarked) [Example 268, 2-(4-(6-((4-cyano-2-fluorobenzyl)oxy)pyridin-2-yl)-2,5-difluorobenzyl)-1-(5-oxaspiro[2.4]heptan-7-yl)-1H-benzo[d]imidazole-6-carboxylic acid], the pEC50 is 9.76. Under `N#Cc1ccc(COc2cccc(-c3cc(F)c(Cc4nc5ccc(C(=O)O)cc5n4CC4(C5CC5)CCCO4)cc3F)n2)c(F)c1` (centres unmarked) [Example 273, 2-(4-(6-((4-cyano-2-fluorobenzyl)oxy)pyridin-2-yl)-2,5-difluorobenzyl)-1-((2-cyclopropyltetrahydrofuran-2-yl)methyl)-1H-benzo[d]imidazole-6-carboxylic acid] stands 9.03; under `N#Cc1ccc(COc2cccc(-c3cc(F)c(Cc4nc5ccc(C(=O)O)cc5n4CC4CC5(CC5)CO4)cc3F)n2)c(F)c1` (centres unmarked) [Example 274, 1-(5-oxaspiro[2.4]heptan-6-ylmethyl)-2-(4-(6-((4-cyano-2-fluorobenzyl)oxy)pyridin-2-yl)-2,5-difluorobenzyl)-1H-benzo[d]imidazole-6-carboxylic acid], 9.19.
